# Source: publication PMC9104798, “Plant Alkaloid Tetrandrine Is a Nuclear Receptor 4A1 Antagonist and Inhibits Panc-1 Cell Growth In Vitro and In Vivo” (International Journal of Molecular Sciences, 2022)
# Target: nuclear receptor 4A1 (NR4A1) (Homo sapiens, UniProt P22736)
# Assay: tryptophan fluorescence quenching with NR4A1 LBD ([…])
# Format: binding
# nuclear receptor 4A1 (NR4A1), sequence (P22736 351-598 limits assumed): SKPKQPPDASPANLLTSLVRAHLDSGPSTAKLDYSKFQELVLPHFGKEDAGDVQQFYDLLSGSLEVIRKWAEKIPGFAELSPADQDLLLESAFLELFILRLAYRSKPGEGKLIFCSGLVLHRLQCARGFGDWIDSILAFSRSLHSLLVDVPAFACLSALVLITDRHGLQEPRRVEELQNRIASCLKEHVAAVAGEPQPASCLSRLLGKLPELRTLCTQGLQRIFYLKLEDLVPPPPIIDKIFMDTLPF
smiles,measurement,value
"COc1ccc2cc1Oc1ccc(cc1)C[C@H]1c3cc(c(OC)cc3CCN1C)Oc1c(OC)c(OC)cc3c1[C@H](C2)N(C)CC3 [TTD, tetrandrine]",Kd,10.6 µM
